These are literature values, as cited in patent US10104888B2, “Tannin-chitosan composites” (WISCONSIN ALUMNI RESEARCH FOUNDATION, priority 2009, dated 2018).

For this series the following is noted: in vivo.

As for “poly(β-(1→4)-2-amino-2-deoxy-D-glucopyranose) [Chitosan]”, the LD50 is greater than 16000 mg/kg.
